Data reported in the NIST ThermoML archive (doi:10.1021/je900093h).

Details: for vapor or sublimation pressure: Liquid, Calculated from knudsen effusion weight loss

CCCCCCCCCC(=O)OCC [ethyl decanoate]
Details | Triple point temperature [K] | vapor or sublimation pressure [kPa]
293.77 K | – | 0.00169
298.67 K | – | 0.00267
298.72 K | – | 0.00267
303.68 K | – | 0.00414
308.61 K | – | 0.00648
313.57 K | – | 0.01
318.32 K | – | 0.0152
323.24 K | – | 0.0219
Crystal | 253.6 | –
